These results are taken from patent US4042707A, “3α-Arylhydroisoindoles” (E. I. Du Pont de Nemours and Company, priority 1976, dated 1977).

As usually defined, the ED50 is the dose at which the effect has come halfway, by size or by number of responders.

Data set [1] concerns Straub tail induced by morphine sulfate. In words: narcotic antagonist test: prevention of morphine-induced Straub tail in mice. The format is in vivo. The note with it: test drug s.c. 10 min before morphine sulfate 40 mg/kg s.c., observed 20 min, fasted female CF1 S mice; for ED50: Mus musculus, sc, read-out: ED50, prevention of 90° Straub tail (narcotic antagonism). As for the experimental part: (§1) There is a close correlation between a drug's addiction liability and its ability to cause Straub tail in mice [Shemano and Wendel, Tox. Appl. Pharm., 6, 334-339 (1964)] at doses much below the LD50. […] This property is the basis of a test for detecting new narcotic antagonist drugs.
17-21 Hour fasted female CF1 S mice 5 per dose were injected subcutaneously (loose skin inside hind limb) with test drug at 0.67, 2, 6, 18, 54, and 162 mg/kg in 0.20 ml 1% Methocel® per mouse. 10 Minutes later, a dosage of 40 mg/kg (base weight) of morphine sulfate in 0.20 ml 1% Methocel® per mouse was given subcutaneously (nape of neck). The mice were observed continuously for the next 20 minutes after the first mouse of a group of 30 had received morphine. Prevention of a 90° Straub tail during this observation period was taken as indication of narcotic antagonist ability. The table below gives the results for several compounds.

The subject of data set [2] is phenylquinone-induced writhing. In words: phenylquinone writhing (PQW) test, analgesic activity, oral, mice. The data set is classed as in vivo. The note with it: Mus musculus, fasted female white mice, phenylquinone i.p. at 23 or 30 min, ED50 for 50% of mice. As for the experimental part:
A standard procedure for detecting and comparing the analgesic acitivity of the compounds, for which there is good correlation with human efficacy, is the standard phenylquinone writhing (PQW) test modified from Siegmund, et al., Proc. Soc. Exp. Biol. Med. 95, 729 (1957). A test compound suspended in 1% methylcellulose was given orally to fasted (17-21 hours) female white mice, 5-20 animals per double blind test. Aqueous (0.01% phenyl-p-benzoquinone)phenylquinone was injected intraperitoneally at 23 or 30 minutes later using 0.25 ml per mouse. […] The effective analgesic dose for 50% of the mice (ED50) was calculated by the moving average method of Weil, Biometrics 8, 249 (1952).
(§2) Ideally a low ED50 dosage for PQW and a high ED50 dosage for ST (Straub Tail) is desired.
On the technique in general: An intraperitoneal irritant provokes the stretching counted in writhing tests.

A further data set in a line: Straub Tail (ST), oral. Conditions: mouse, in vivo, mice, high ED50 desired.
Source text: as §2, §1

Data set [3] has as its system Straub tail in mice induced by morphine. The note with it: Blumberg, Dayton, and Wolf 1968; cited from earlier work.

The structures appear in SMILES notation. Structures can show the parent of a compound that is named as a salt. A value given as a limit tells only on which side of the number the result lay.

For `Oc1cccc([C@]23CC=CC[C@H]2CN(CCc2ccccc2)C3)c1` (relative stereo) [Example 8, N-Phenethyl-3a-(m-hydroxyphenyl)-2,3,3a,4,7,7a-hexahydroisoindole Hydrochloride], in data set [1] (Hydrochloride), the “ED50, prevention of 90° Straub tail (narcotic antagonism)” value is listed as 54 mg/kg.
`COc1cccc([C@]23CC=CC[C@H]2CN(CCc2ccccc2)C3)c1` (relative stereo) registered an ED50 in data set [2] of 26 mg/kg.
Regarding `C=CCN1C[C@@H]2CC=CC[C@]2(c2ccccc2)C1` (relative stereo), the ED50 in data set [2] was 140 mg/kg; in “Straub Tail (ST), oral” it was greater than 200 mg/kg.
Regarding `CC1=C(C)C[C@]2(c3cccc(O)c3)CN(CC3CC3)C[C@H]2C1` (relative stereo) [Example 2, N-Cyclopropylmethyl-3a-(m-hydroxyphenyl)-5,6-dimethyl-2,3,3a,4,7,7a-trans-hexahydroisoindole], the ED50 in data set [1] was found to be 5.2 mg/kg.
With `C=CCN1CC[C@]23c4c5ccc(O)c4O[C@H]2[C@@H](O)C=C[C@H]3[C@H]1C5` [nalorphine], the “prevention of the induction of Straub tail” value (“prevention … of Straub tail” for short) in data set [3] is “can prevent the induction of Straub tail”.
Take `CC(C)=CCN1CCC2(C)c3cc(O)ccc3CC1C2C` (stereo not shown) [Pentazocine, reference compound]: the ED50 in data set [1] was determined as 4 mg/kg. Moreover, the “prevention … of Straub tail” value in data set [3] is on record as “can prevent the induction of Straub tail”.
Consider `CN1C[C@@H]2CC=CC[C@]2(c2ccccc2)C1` (relative stereo), for which the ED50 in data set [2] is 32 mg/kg; in “Straub Tail (ST), oral”, greater than 162 mg/kg.
On the same counts, the results for `CN1C[C@@H]2CCCC[C@]2(c2ccccc2)C1` (relative stereo) are 90 mg/kg and greater than 200 mg/kg.
On the same counts, the results for `CC1=C(C)C[C@]2(c3cccc(O)c3)CN(CC3CC3)C[C@H]2C1` (relative stereo) [drawing 69] are 120 mg/kg and greater than 162 mg/kg.
`Oc1cccc([C@]23CC=CC[C@H]2CN(CCc2ccccc2)C3)c1` (relative stereo) [drawing 74] registered an ED50 in data set [2] of 19 mg/kg.
For the compound `COc1cccc([C@]23CC(C)=C(C)C[C@@H]2CN(CC2CC2)C3)c1` (relative stereo), the ED50 in data set [2] is 78 mg/kg; in the data set “Straub Tail (ST), oral”, greater than 135 mg/kg.
On to `C=CCN1CC[C@]23c4c5ccc(O)c4O[C@H]2C(=O)CC[C@@]3(O)[C@H]1C5` [naloxone], for which the “prevention … of Straub tail” value in data set [3] is listed as “can prevent the induction of Straub tail”.
In the case of `Oc1cccc([C@]23CC=CC[C@H]2CN(CCc2ccccc2)C3)c1` (relative stereo) [Example 7, N-Phenethyl-3a-(m-hydroxyphenyl)-2,3,3a,4,7,7a-cis-hexahydroisoindole], the ED50 in data set [1] stood at 43 mg/kg.
